Columns and labels:
Details in all cases: PC-3
[1] = target: Mitogen-activated protein kinase kinase kinase 4 (Homo sapiens) (UniProt Q9Y6R4); experiment: Inhibition of MAP3K4 in human PC3 cell lysates at 10 uM using desthiobiotin-tagged ATP probe AX9989 followed by trypsinization by LC/MS analysis
[2] = target: Ephrin type-A receptor 7 (Homo sapiens) (UniProt Q15375); experiment: Inhibition of EphA7 in human PC3 cell lysates at 10 uM using desthiobiotin-tagged ATP probe AX9989 followed by trypsinization by LC/MS analysis
[3] = target: T1, Serine/threonine-protein kinase TAO2 (Homo sapiens) (UniProt Q9UL54); experiment: Inhibition of TAO2 in human PC3 cell lysates at 10 uM using desthiobiotin-tagged ATP probe AX9989 followed by trypsinization by LC/MS analysis
T1 sequence (whole entry): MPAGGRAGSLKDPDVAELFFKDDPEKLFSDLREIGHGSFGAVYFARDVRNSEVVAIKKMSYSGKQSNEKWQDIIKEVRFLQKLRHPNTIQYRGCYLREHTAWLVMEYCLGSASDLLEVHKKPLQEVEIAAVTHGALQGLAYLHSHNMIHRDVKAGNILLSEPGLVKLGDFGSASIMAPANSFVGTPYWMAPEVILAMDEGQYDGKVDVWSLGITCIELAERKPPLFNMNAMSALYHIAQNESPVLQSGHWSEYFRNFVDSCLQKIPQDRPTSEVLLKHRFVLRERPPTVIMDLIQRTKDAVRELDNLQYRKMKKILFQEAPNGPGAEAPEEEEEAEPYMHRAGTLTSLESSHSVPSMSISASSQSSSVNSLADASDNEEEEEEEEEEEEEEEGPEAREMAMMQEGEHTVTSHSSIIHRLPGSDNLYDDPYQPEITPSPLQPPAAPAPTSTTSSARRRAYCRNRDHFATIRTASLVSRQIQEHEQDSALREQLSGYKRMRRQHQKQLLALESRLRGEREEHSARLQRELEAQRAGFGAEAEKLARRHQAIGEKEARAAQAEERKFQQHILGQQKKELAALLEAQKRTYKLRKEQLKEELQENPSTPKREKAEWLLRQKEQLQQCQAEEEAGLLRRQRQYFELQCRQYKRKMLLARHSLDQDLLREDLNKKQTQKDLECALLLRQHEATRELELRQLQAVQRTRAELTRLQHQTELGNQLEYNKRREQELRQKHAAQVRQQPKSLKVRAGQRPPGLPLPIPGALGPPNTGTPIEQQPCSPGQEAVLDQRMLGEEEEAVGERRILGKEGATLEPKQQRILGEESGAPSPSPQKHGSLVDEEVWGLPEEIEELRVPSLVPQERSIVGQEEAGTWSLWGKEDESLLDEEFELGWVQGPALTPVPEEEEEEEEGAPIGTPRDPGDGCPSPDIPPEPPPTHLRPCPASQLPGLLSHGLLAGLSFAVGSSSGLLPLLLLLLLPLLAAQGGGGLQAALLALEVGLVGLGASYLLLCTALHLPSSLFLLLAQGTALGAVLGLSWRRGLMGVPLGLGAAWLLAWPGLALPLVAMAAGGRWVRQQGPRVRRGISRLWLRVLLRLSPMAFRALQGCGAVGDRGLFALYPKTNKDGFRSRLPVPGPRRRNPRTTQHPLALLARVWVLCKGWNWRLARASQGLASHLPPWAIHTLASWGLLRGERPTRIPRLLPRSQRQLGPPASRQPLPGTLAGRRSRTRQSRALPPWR

[4] = target: Serine/threonine-protein kinase ATR (Homo sapiens) (UniProt Q13535); experiment: Inhibition of ATR in human PC3 cell lysates at 10 uM using desthiobiotin-tagged ATP probe AX9989 followed by trypsinization by LC/MS analysis
[5] = target: T2, Serine/threonine-protein kinase D2 (Homo sapiens) (UniProt Q9BZL6); experiment: Inhibition of PKD2 in human PC3 cell lysates at 10 uM using desthiobiotin-tagged ATP probe AX9989 followed by trypsinization by LC/MS analysis
T2 sequence (whole entry): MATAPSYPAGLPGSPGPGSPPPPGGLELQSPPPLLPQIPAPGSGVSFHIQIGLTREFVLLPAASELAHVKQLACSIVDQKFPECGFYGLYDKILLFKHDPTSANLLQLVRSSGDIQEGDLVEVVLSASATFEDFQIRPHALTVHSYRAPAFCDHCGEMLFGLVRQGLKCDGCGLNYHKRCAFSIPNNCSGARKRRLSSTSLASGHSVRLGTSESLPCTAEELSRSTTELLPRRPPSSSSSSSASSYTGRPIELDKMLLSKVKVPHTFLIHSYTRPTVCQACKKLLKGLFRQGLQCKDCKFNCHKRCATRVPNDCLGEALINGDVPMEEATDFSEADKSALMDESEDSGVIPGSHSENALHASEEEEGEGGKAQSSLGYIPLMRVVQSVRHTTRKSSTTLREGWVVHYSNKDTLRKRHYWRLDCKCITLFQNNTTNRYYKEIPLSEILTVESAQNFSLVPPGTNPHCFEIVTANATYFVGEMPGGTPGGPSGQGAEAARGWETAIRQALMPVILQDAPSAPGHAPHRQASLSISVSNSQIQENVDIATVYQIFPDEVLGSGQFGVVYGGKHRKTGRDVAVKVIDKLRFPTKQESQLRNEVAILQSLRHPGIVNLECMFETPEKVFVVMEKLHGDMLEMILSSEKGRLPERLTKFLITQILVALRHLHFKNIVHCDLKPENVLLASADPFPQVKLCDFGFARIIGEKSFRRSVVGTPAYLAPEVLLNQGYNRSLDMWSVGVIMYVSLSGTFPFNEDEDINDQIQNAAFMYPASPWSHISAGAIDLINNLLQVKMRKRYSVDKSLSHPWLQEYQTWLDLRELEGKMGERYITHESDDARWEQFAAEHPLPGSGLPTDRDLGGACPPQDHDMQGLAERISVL

Ephrin type-A receptor 7 (Homo sapiens), sequence (Q15375 28-998 limits assumed): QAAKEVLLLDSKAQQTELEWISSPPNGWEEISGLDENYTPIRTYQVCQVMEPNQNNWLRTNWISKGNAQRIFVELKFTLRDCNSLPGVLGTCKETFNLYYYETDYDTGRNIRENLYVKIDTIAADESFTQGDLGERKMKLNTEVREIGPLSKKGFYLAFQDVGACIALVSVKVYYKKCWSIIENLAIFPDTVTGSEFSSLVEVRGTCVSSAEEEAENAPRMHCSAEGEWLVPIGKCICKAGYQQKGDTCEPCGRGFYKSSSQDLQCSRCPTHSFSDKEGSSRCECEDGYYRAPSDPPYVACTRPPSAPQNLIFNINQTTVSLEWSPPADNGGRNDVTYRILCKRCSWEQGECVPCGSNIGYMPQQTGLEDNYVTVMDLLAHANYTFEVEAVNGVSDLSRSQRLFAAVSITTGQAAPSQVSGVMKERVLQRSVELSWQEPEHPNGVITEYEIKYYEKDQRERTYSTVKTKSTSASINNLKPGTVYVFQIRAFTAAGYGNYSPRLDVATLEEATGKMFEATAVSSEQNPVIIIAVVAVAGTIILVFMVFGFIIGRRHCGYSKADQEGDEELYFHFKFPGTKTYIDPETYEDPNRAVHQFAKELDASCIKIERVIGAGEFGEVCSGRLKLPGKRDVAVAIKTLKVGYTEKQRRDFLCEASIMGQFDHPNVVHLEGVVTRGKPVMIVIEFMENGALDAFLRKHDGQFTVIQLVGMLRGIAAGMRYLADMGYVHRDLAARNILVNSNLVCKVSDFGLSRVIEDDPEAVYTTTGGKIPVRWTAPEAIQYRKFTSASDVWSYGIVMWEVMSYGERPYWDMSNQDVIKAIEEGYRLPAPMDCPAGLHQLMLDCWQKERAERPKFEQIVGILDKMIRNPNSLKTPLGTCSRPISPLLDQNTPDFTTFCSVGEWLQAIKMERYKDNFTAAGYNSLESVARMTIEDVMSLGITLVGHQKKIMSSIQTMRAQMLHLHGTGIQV
Mitogen-activated protein kinase kinase kinase 4 (Homo sapiens), sequence (Q9Y6R4 whole entry): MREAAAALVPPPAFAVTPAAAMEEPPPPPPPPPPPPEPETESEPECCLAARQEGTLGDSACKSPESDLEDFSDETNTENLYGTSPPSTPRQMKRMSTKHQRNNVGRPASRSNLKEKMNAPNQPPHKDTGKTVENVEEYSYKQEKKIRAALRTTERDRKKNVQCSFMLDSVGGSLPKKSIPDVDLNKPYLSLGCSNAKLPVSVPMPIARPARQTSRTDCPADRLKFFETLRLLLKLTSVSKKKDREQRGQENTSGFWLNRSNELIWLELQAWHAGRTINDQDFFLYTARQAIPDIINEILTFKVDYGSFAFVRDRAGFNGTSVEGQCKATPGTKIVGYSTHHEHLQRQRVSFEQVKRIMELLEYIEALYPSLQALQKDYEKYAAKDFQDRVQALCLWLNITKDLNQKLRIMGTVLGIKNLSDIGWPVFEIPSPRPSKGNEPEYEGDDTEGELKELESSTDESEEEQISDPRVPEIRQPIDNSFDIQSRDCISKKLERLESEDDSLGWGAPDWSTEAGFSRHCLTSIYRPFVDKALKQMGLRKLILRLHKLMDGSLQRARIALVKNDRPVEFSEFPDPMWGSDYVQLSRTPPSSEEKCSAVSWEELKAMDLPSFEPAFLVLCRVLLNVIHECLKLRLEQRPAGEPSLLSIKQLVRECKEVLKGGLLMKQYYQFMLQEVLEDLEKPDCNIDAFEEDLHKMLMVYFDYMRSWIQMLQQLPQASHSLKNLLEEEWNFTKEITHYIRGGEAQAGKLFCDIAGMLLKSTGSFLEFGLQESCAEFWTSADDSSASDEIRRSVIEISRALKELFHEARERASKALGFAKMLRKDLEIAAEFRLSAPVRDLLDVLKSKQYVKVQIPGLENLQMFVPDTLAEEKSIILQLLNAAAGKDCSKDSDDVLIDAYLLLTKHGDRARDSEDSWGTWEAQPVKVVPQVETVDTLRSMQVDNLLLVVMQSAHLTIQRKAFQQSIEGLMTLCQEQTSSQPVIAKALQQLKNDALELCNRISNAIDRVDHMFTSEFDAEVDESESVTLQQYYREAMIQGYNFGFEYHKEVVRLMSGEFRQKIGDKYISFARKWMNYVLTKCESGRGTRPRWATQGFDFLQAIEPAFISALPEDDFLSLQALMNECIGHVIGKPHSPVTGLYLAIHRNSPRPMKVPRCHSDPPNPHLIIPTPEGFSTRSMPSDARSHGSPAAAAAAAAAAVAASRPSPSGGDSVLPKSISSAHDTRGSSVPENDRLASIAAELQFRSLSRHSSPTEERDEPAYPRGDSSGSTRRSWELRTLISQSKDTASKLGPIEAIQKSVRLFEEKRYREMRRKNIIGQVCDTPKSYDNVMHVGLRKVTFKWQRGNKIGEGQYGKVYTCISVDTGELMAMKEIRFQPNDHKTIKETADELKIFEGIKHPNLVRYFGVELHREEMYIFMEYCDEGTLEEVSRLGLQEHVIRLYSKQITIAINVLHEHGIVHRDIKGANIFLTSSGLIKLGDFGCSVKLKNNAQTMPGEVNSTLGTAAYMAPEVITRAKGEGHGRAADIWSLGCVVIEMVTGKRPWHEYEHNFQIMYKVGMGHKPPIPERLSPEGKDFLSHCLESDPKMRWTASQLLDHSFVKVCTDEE

inhibition [1] [%]	inhibition [2] [%]	inhibition [3] [%]	inhibition [4] [%]	inhibition [5] [%]	Structure (SMILES)
< 35	< 35	< 35	< 35	< 35	O=C(NC1(c2ccccc2)CC1)c1ccc2nc(N[C@H]3CC[C@H](O)CC3)c3nccn3c2c1
< 35	< 35	< 35	< 35	< 35	C[C@H](NC(=O)c1ccc2nc(N[C@H]3CC[C@H](O)CC3)c3nccn3c2c1)c1ccccc1
< 35	< 35	< 35	< 35	< 35	O=C(NC1(c2ccccc2)CCC1)c1ccc2nc(N[C@H]3CC[C@H](O)CC3)c3nccn3c2c1
< 35	< 35	< 35	< 35	< 35	O=C(NC1(c2ccc(F)cc2)CC1)c1ccc2nc(N[C@H]3CC[C@H](O)CC3)c3nccn3c2c1

More lines, now with the values behind:

Structure (SMILES)	inhibition [1] [%]	inhibition [2] [%]	inhibition [3] [%]	inhibition [4] [%]	inhibition [5] [%]
O=C(N[C@H](CO)c1ccccc1)c1ccc2nc(N[C@H]3CC[C@H](O)CC3)c3nccn3c2c1	< 35	< 35	< 35	< 35	< 35
CC(C)(NC(=O)c1ccc2nc(N[C@H]3CC[C@H](O)CC3)c3nccn3c2c1)c1ccccc1	< 35	< 35	< 35	< 35	< 35
NC(=O)c1ccc2nc(N[C@H]3CC[C@H](O)CC3)c3nccn3c2c1	< 35	< 35	< 35	< 35	51.7
CCC[C@@H](NC(=O)c1ccc2nc(N[C@H]3CC[C@H](O)CC3)c3nccn3c2c1)c1ccccc1	< 35	< 35	< 35	< 35	< 35
C[C@@H](NC(=O)c1ccc2nc(N[C@H]3CC[C@H](O)CC3)c3nccn3c2c1)c1ccccc1	< 35	< 35	< 35	< 35	< 35
CC[C@@H](NC(=O)c1ccc2nc(N[C@H]3CC[C@H](O)CC3)c3nccn3c2c1)c1ccccc1	< 35	< 35	< 35	< 35	< 35
O=C(NC1(Cc2ccc(F)cc2)CC1)c1ccc2nc(N[C@H]3CC[C@H](O)CC3)c3nccn3c2c1	< 35	< 35	< 35	< 35	< 35
O=C(O)c1ccc2nc(N[C@H]3CC[C@H](O)CC3)c3nccn3c2c1	< 35	< 35	67	< 35	< 35

Source: ChEMBL document CHEMBL2417377, “Hit-to-lead optimization and kinase selectivity of imidazo[1,2-a]quinoxalin-4-amine derived JNK1 inhibitors” (Bioorg Med Chem Lett, 2013)
